Measured values as given in article PMC12040969, “Design, synthesis, in silico studies, and apoptotic antiproliferative activity of novel thiazole-2-acetamide derivatives as tubulin polymerization inhibitors” (Frontiers in Chemistry, 2025).

Tests used:
breast - MCF-7 = assay: Antiproliferative assay (MTT) MCF-7; details: for IC50: read-out: Antiproliferative activity IC50 ± SEM (µM) MCF-7, MCF-7, MTT
tubulin = assay: Tubulin polymerization inhibition assay (Cytoskeleton kit);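 on all read-outs here: Cell-free tubulin polymerization read by fluorescent reporter enhancement over a 30 min reaction, with the compound-free kit control taken as 100% activity and inhibition relative to it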; details: for Tub. enzyme inhibition assay %inhibition / Tub %inh: 30 min; for Tub. enzyme inhibition assay %inhibition: codes 522-537 run; for Tub. enzyme inhibition assay K. Activity: control = 120, codes 522-537 run; for IC50: read-out: Tubulin inhibition IC50 ± SEM, triplicate for each tested concentration; for Tub %inh: YB-EGY run; for Tub K.Activity: EC = 120, YB-EGY run
colon - HCT-116 = assay: Antiproliferative assay (MTT) HCT-116; details: for IC50: read-out: Antiproliferative activity IC50 ± SEM (µM) HCT-116, HCT-116, MTT
prostatic - PC-3 = assay: Antiproliferative assay (MTT) PC-3; details: for IC50: read-out: Antiproliferative activity IC50 ± SEM (µM) PC-3, PC-3, MTT
- MDAMB-231 = assay: Antiproliferative assay (MTT) MDAMB-231
pancreatic - MDAMB-231 = assay: Antiproliferative assay (MTT) MDAMB-231; details: read-out: Antiproliferative activity IC50 ± SEM (µM) MDAMB-231; MDAMB-231, MTT
[1] = test system: four human cancer cell lines (HCT-116, PC-3, MCF-7, MDAMB-231); assay: Antiproliferative assay, mean of four cell lines (GI50); details: for Reduced potency compared to doxorubicin (GI50) / Reduced potency compared to sorafenib (GI50): GI50 ratio; for IC50: Homo sapiens, read-out: GI50 (average IC50)
[2] = Cell viability assay (MTT), normal cells; assay type: cell-based; details: human, MCF-10A normal mammary gland epithelial cells, four-day incubation
Experimental: The impact of novel compounds 10a-o and 13a-e on cell viability was examined using the MCF-10A (human mammary gland epithelial) normal cell line. The MTT test was employed to assess the cell viability of the novel compounds after a four-day incubation with MCF-10A cells ([El-Sherief et al., 2019]; [Ramadan et al., 2020]).
The effects of compounds 10a-o and 13a-e on cell viability were assessed using the human mammary gland epithelial normal cell line (MCF-10A). The MTT assay assessed the cell viability of compounds 10a-o and 13a-e following a four-day incubation with MCF-10A cells ([El-Sherief et al., 2019]; [Ramadan et al., 2020]). Check Supplementary Appendix A for additional information.
4.2. Biological evaluation
4.2.1 Cell Viability assay (MTT assay)
MTT assay was performed to investigate the effect of the synthesized compounds on mammary epithelial cells (MCF-10A). The cells were propagated in medium consisting of Ham's F-12 medium/ Dulbecco's modified Eagle's medium (DMEM) (1:1) supplemented with 10% foetal calf serum, 2 mM glutamine, insulin (10 μg/mL), hydrocortisone (500 ng/mL) and epidermal growth factor (20 ng/mL). Trypsin ethylenediamine tetra acetic acid (EDTA) was used to passage the cells after every 2-3 days. 96-well flat-bottomed cell culture plates were used to seed the cells at a density of 10^4 cells mL-1. The medium was aspirated from all the wells of culture plates after 24 h followed by the addition of synthesized compounds (in 200 μL medium to yield a final concentration of 0.1% (v/v) dimethyl sulfoxide) into individual wells of the plates.
Four wells were designated to a single compound. The plates were allowed to incubate at 37°C for 96 h. Afterwards, the medium was aspirated and 3-[4,5-dimethylthiazol-2-yl]-2,5-diphenyltetrazolium bromide (MTT) (0.4 mg/mL) in medium was added to each well and subsequently incubated for 3 h. The medium was aspirated and 150 μL dimethyl sulfoxide (DMSO) was added to each well. The plates were vortexed followed by the measurement of absorbance at 540 nm on a microplate reader. The results were presented as inhibition (%) of proliferation in contrast to controls comprising 0.1%

Cc1nc(SCC(=O)Nc2nc(-c3ccc(Cl)cc3)cs2)sc1C(=O)/C=C/c1ccccc1 [Compound 10f, (E)-N-(4-(4-chlorophenyl)thiazol-2-yl)-2-((5-cinnamoyl-4-methylthiazol-2-yl)thio) acetamide]
Average of Relative viability of cells (%) (breast - MCF-7; MCF-7, 1.56 µM): 100% | Average of Relative viability of cells (%) (breast - MCF-7; MCF-7, 3.125 µM): 84.7% | Average of Relative viability of cells (%) (breast - MCF-7; MCF-7, 6.25 µM): 68.3% | Average of Relative viability of cells (%) (breast - MCF-7; MCF-7, 12.5 µM): 41.9% | Average of Relative viability of cells (%) (breast - MCF-7; MCF-7, 25 µM): 33.5% | Average of Relative viability of cells (%) (breast - MCF-7; MCF-7, 50 µM): 27.4% | Average of Relative viability of cells (%) (breast - MCF-7; MCF-7, 100 µM): 19.2% | IC50 (breast - MCF-7): 14 ± 1.1 µM | Tub. enzyme inhibition assay %inhibition (tubulin; conc 0.01 (unit not given)): 5.23% | Tub. enzyme inhibition assay K. Activity (tubulin; conc 0.01 (unit not given)): 113.72 | Tub. enzyme inhibition assay %inhibition (tubulin; conc 0.1 (unit not given)): 15.6% | Tub. enzyme inhibition assay K. Activity (tubulin; conc 0.1 (unit not given)): 101.33 | Tub. enzyme inhibition assay %inhibition (tubulin; conc 1 (unit not given)): 34.8% | Tub. enzyme inhibition assay K. Activity (tubulin; conc 1 (unit not given)): 78.182 | Tub. enzyme inhibition assay %inhibition (tubulin; conc 10 (unit not given)): 58.9% | Tub. enzyme inhibition assay K. Activity (tubulin; conc 10 (unit not given)): 49.376 | Tub. enzyme inhibition assay %inhibition (tubulin; conc 100 (unit not given)): 87.6% | Tub. enzyme inhibition assay K. Activity (tubulin; conc 100 (unit not given)): 14.884 | IC50 (tubulin): 5.62 ± 0.17 µM | Tub. (IC50) IC50±SD (tubulin; supplement raw data, lab codes): 2.88 ± 0.09 mg/L | Average of Relative viability of cells (%) (colon - HCT-116; HCT-116, 1.56 µM): 100% | Average of Relative viability of cells (%) (colon - HCT-116; HCT-116, 3.125 µM): 90.2% | Average of Relative viability of cells (%) (colon - HCT-116; HCT-116, 6.25 µM): 71.1% | Average of Relative viability of cells (%) (colon - HCT-116; HCT-116, 12.5 µM): 63.4% | Average of Relative viability of cells (%) (colon - HCT-116; HCT-116, 25 µM): 50.5% | Average of Relative viability of cells (%) (colon - HCT-116; HCT-116, 50 µM): 35.7% | Average of Relative viability of cells (%) (colon - HCT-116; HCT-116, 100 µM): 23.6% | IC50 (colon - HCT-116): 25 ± 1.8 µM | Average of Relative viability of cells (%) (prostatic - PC-3; PC-3, 1.56 µM): 100% | Average of Relative viability of cells (%) (prostatic - PC-3; PC-3, 3.125 µM): 91.8% | Average of Relative viability of cells (%) (prostatic - PC-3; PC-3, 6.25 µM): 70.5% | Average of Relative viability of cells (%) (prostatic - PC-3; PC-3, 12.5 µM): 58.2% | Average of Relative viability of cells (%) (prostatic - PC-3; PC-3, 25 µM): 46.7% | Average of Relative viability of cells (%) (prostatic - PC-3; PC-3, 50 µM): 32.3% | Average of Relative viability of cells (%) (prostatic - PC-3; PC-3, 100 µM): 24.2% | IC50 (prostatic - PC-3): 22 ± 1.6 µM | Average of Relative viability of cells (%) (- MDAMB-231; MDAMB-231, 1.56 µM): 96.1% | Average of Relative viability of cells (%) (- MDAMB-231; MDAMB-231, 3.125 µM): 79.5% | Average of Relative viability of cells (%) (- MDAMB-231; MDAMB-231, 6.25 µM): 63.2% | Average of Relative viability of cells (%) (- MDAMB-231; MDAMB-231, 12.5 µM): 38.7% | Average of Relative viability of cells (%) (- MDAMB-231; MDAMB-231, 25 µM): 27.4% | Average of Relative viability of cells (%) (- MDAMB-231; MDAMB-231, 50 µM): 17.8% | Average of Relative viability of cells (%) (- MDAMB-231; MDAMB-231, 100 µM): 14.3% | IC50 (pancreatic - MDAMB-231): 10 ± 0.9 µM | Reduced potency compared to doxorubicin (GI50) [1]: at least 2.5 fold | Reduced potency compared to sorafenib (GI50) [1]: ≥ 1.5 fold | IC50 [1]: 18 µM | viability at 96 h, 50 µM [2]: 86%

Cc1nc(SCC(=O)Nc2nc(-c3ccc(Cl)cc3)cs2)sc1C(=O)/C=C/c1ccc(F)cc1 [Compound 10h, (E)-N-(4-(4-chlorophenyl)thiazol-2-yl)-2-((5-(3-(4-fluorophenyl)acryloyl)-4-methylthiazol-2-yl)thio)acetamide]
Average of Relative viability of cells (%) (breast - MCF-7; MCF-7, 1.56 µM): 100% | Average of Relative viability of cells (%) (breast - MCF-7; MCF-7, 3.125 µM): 94.8% | Average of Relative viability of cells (%) (breast - MCF-7; MCF-7, 6.25 µM): 76.5% | Average of Relative viability of cells (%) (breast - MCF-7; MCF-7, 12.5 µM): 53.9% | Average of Relative viability of cells (%) (breast - MCF-7; MCF-7, 25 µM): 50.2% | Average of Relative viability of cells (%) (breast - MCF-7; MCF-7, 50 µM): 37.1% | Average of Relative viability of cells (%) (breast - MCF-7; MCF-7, 100 µM): 23.6% | IC50 (breast - MCF-7): 24 ± 1.7 µM | Tub %inh (tubulin; conc 0.1 (unit not given)): 9.85% | Tub K.Activity (tubulin; conc 0.1 (unit not given)): 108.18 | Tub %inh (tubulin; conc 1 (unit not given)): 26.6% | Tub K.Activity (tubulin; conc 1 (unit not given)): 88.132 | Tub %inh (tubulin; conc 10 (unit not given)): 44.8% | Tub K.Activity (tubulin; conc 10 (unit not given)): 66.269 | Tub %inh (tubulin; conc 50 (unit not given)): 65.5% | Tub K.Activity (tubulin; conc 50 (unit not given)): 41.405 | Tub %inh (tubulin; conc 100 (unit not given)): 84.5% | Tub K.Activity (tubulin; conc 100 (unit not given)): 18.607 | IC50 (tubulin): 7.95 ± 0.24 µM | Average of Relative viability of cells (%) (colon - HCT-116; HCT-116, 1.56 µM): 100% | Average of Relative viability of cells (%) (colon - HCT-116; HCT-116, 3.125 µM): 97.6% | Average of Relative viability of cells (%) (colon - HCT-116; HCT-116, 6.25 µM): 79.5% | Average of Relative viability of cells (%) (colon - HCT-116; HCT-116, 12.5 µM): 69.3% | Average of Relative viability of cells (%) (colon - HCT-116; HCT-116, 25 µM): 52.8% | Average of Relative viability of cells (%) (colon - HCT-116; HCT-116, 50 µM): 39.4% | Average of Relative viability of cells (%) (colon - HCT-116; HCT-116, 100 µM): 20.2% | IC50 (colon - HCT-116): 29 ± 1.9 µM | Average of Relative viability of cells (%) (prostatic - PC-3; PC-3, 1.56 µM): 100% | Average of Relative viability of cells (%) (prostatic - PC-3; PC-3, 3.125 µM): 100% | Average of Relative viability of cells (%) (prostatic - PC-3; PC-3, 6.25 µM): 100% | Average of Relative viability of cells (%) (prostatic - PC-3; PC-3, 12.5 µM): 93.5% | Average of Relative viability of cells (%) (prostatic - PC-3; PC-3, 25 µM): 72.4% | Average of Relative viability of cells (%) (prostatic - PC-3; PC-3, 50 µM): 55.8% | Average of Relative viability of cells (%) (prostatic - PC-3; PC-3, 100 µM): 36.5% | IC50 (prostatic - PC-3): 61 ± 3.5 µM | Average of Relative viability of cells (%) (- MDAMB-231; MDAMB-231, 1.56 µM): 100% | Average of Relative viability of cells (%) (- MDAMB-231; MDAMB-231, 3.125 µM): 85.7% | Average of Relative viability of cells (%) (- MDAMB-231; MDAMB-231, 6.25 µM): 68.5% | Average of Relative viability of cells (%) (- MDAMB-231; MDAMB-231, 12.5 µM): 47.4% | Average of Relative viability of cells (%) (- MDAMB-231; MDAMB-231, 25 µM): 37.1% | Average of Relative viability of cells (%) (- MDAMB-231; MDAMB-231, 50 µM): 26.7% | Average of Relative viability of cells (%) (- MDAMB-231; MDAMB-231, 100 µM): 21.6% | IC50 (pancreatic - MDAMB-231): 15 ± 1.3 µM | Reduced potency compared to doxorubicin (GI50) [1]: at least 2.5 fold | Reduced potency compared to sorafenib (GI50) [1]: ≥ 1.5 fold | IC50 [1]: 32 µM | viability at 96 h, 50 µM [2]: 85%
